Five molecules from patent US20210047366A1, “ANDRIAS DAVIDIANUS CARTILAGE PREPARATION” (TSINGHUA UNIVERSITY, priority 2017, published 2021) can be followed below.

For this assay, the target named is XOD (xanthine oxidase) enzyme (Sigma, derived from milk) (Bos taurus, UniProt P80457). As to the kind of experiment: XOD enzyme activity inhibition (XOD enzyme activity detection kit, uric acid absorption at 295 nm). The note with it: for IC50: half-inhibitory concentration on XOD; for XOD enzyme activity inhibition: concentration three times the half-inhibitory concentration.
Sequence of XOD (xanthine oxidase) enzyme (Sigma, derived from milk) (P80457 whole entry): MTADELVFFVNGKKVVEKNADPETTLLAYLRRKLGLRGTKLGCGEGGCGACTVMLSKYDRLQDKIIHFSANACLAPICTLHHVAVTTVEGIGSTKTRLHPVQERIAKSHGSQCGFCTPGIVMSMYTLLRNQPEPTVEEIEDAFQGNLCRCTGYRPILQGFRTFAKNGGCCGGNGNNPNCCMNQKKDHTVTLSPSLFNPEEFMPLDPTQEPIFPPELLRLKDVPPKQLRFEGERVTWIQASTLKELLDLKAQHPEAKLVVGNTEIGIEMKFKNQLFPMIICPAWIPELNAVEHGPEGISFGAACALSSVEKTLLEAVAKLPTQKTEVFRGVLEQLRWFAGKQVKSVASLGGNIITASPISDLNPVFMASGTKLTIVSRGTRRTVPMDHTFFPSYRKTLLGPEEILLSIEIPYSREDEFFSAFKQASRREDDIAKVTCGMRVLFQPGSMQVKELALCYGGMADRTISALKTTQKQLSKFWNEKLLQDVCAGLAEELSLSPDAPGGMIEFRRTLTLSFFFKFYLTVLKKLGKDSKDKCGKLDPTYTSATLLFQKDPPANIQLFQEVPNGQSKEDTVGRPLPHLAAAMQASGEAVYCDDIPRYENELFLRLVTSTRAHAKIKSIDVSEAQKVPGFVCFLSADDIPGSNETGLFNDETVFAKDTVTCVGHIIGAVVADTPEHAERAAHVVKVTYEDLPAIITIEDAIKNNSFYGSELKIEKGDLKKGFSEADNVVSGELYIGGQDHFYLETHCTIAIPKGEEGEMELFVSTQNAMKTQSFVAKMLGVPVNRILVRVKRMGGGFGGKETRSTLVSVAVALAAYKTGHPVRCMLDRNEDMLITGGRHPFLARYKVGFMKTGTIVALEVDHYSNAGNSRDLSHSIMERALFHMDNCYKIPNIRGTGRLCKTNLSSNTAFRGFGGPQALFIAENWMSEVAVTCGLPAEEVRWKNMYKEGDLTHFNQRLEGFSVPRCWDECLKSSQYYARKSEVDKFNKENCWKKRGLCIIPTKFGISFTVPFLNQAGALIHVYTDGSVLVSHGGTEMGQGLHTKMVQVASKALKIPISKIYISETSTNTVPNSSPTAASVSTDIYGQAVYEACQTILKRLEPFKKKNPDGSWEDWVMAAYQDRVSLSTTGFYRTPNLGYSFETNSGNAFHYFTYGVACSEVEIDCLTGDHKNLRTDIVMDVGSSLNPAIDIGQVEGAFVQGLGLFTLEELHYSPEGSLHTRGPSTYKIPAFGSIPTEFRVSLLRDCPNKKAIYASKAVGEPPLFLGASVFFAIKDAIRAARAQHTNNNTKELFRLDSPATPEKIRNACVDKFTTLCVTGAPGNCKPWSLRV

No end group written: not given here.

The term IC50 denotes the concentration needed to halve the response being measured. On to TGPLGPSPGP [Peptide S2], for which the “XOD enzyme activity inhibition” value is recorded as “completely inhibited” and inhibition was half-maximal at 0.000125 M (IC50). This molecule had an IC50 (IC50(M), Table 5, molar) of 0.000125 M. Moreover, under “read-out: XOD activity (%)”, the activity at 50 µg/mL was 80%, the activity at 100 µg/mL is 55.8% and the activity at 200 µg/mL was 17.9%.
For DNLPPLPK [Peptide S4], the “XOD enzyme activity inhibition” value was “completely inhibited” and the IC50 is 6.72e-05 M. The same molecule yielded an IC50 (IC50(M), Table 5, molar) of 6.72e-05 M. Also, for the setting “read-out: XOD activity (%)”, the activity at 20 µg/mL is 87.9%, the activity at 40 µg/mL worked out at 67.7% and the activity at 80 µg/mL worked out at 43.2%.
For the molecule `Oc1ncnc2[nH]ncc12` [Allopurinol, reference compound], the “XOD enzyme activity retained” value (concentration 30 μg/mL) is “about 10%”. Moreover, where the note is “read-out: XOD activity (%)”, the activity at 0.2 µg/mL is 59.4%, the activity at 0.4 µg/mL is 34.7% and the activity at 0.8 µg/mL is 31.2%.
As to HDLPLPLPE [Peptide S3], the “XOD enzyme activity inhibition” value is on record as “completely inhibited” and the IC50 was 5.82e-05 M. Half-maximal inhibition (IC50(M), Table 5, molar) (IC50) required 5.82e-05 M. Under “read-out: XOD activity (%)”, the activity at 20 µg/mL is 87.2%, the activity at 40 µg/mL was determined as 67.3% and the activity at 80 µg/mL worked out at 46.9%.
As to VPSGPLGPEGPR [Peptide S1], inhibition (IC50(M), Table 5, molar) was half-maximal at 0.00275 M (IC50). Also, the IC50 (same reaction system) was 0.00275 M. In addition, for the setting “read-out: XOD activity (%)”, the activity at 2500 µg/mL came to 57.6%, the activity at 5000 µg/mL came to 36.7% and the activity at 10000 µg/mL came to 26.9%.
